The results in this text go back to patent US10047081B2, “BACE1 inhibitors” (Hoffmann-La Roche Inc., priority 2015, dated 2018).

pIC50: −log10 of the molar value.

Data set [1] in a line: GSH human, in vitro adduct formation. The class given is in vitro ADME. Details: key: NF = in vitro no significant adduct formation relative to control. Particulars: in vitro adduct formation relative to control.
The target of data set [2] is T1, cathepsin D (from human liver) (Homo sapiens, UniProt P07339).
T1 construct: cathepsin D (from human liver, Calbiochem) diluted in assay buffer; purchased Calbiochem; host or cells: human liver
The experiment in a line: Cathepsin D fluorescent substrate kinetic assay. The data set is classed as biochemical. Particulars: pH 5.5, substrate WTSVLMAAPC-MR121. From the text: (§1) Cathepsin D and Cathepsin E Fluorescent Substrate Kinetic Assays
(§2) The MR121 fluorescence assays described below are based on the fact that MR121 forms a non-fluorescent ground state complex with tryptophan. In solution this formation occurs at millimolar concentrations of tryptophan. The mechanism can be used to design a generic biochemical assay for proteases. A substrate peptide is labeled at the N-terminus with tryptophan and at the C-terminus with the fluorophore MR121 (for cathepsin D the 10 amino acid peptide WTSVLMAAPC-MR121 was used; for cathepsin E, MR121-CKLVFFAEDW was used). In absence of protease activity, the substrates remain intact and the MR121 fluorescence is reduced by the high local Trp-concentration. If the substrates are cleaved by the enzymes the MR121 fluorescence is recovered.
(§3) The fluorescent substrate cathepsin D and cathepsin E kinetic assays were performed at room temperature in 384-well microtiter plates (black with clear flat bottom, non-binding surface plates from Corning) in a final volume of 51 μl. The test compounds were serially diluted in DMSO (15 concentrations, ⅓ dilution steps) and 1 μl of diluted compounds were mixed for 10 min with 40 μl of cathepsin D (from human liver, Calbiochem) diluted in assay buffer (100 mM sodium acetate, 0.05% BSA, pH 5.5; final concentration:200 nM) or with 40 μl of recombinant human cathepsin E (R&D Systems) diluted in assay buffer (100 mM sodium acetate, 0.05% BSA, pH 4.5; final concentration:0.01 nM). After addition of 10 μl of the cathepsin D substrate WTSVLMAAPC-MR121 diluted in cathepsin D assay buffer (final concentration:300 nM) or 10 μl of the cathepsin E substrate MR121-CKLVFFAEDW diluted in cathepsin E assay buffer (final concentration:300 nM), the plates were strongly shaken for 2 minutes. The enzymatic reaction was followed in a plate: vision reader (Perkin Elmer) (excitation wavelength:630 nm; emission:695 nm) for at least 30 minutes in a kinetic measurement detecting an increase of MR121 fluorescence during the reaction time. The slope in the linear range of the kinetic was calculated and the IC50 of the test compounds were determined using a four parameter equation for curve fitting.

Data set [3] concerns the target T2, CYP2D6 (Homo sapiens, UniProt P10635).
T2 construct: 0.2 mg/ml pooled human liver microsomes; from tissue; host or cells: pooled human liver microsomes
The data set is described as follows: CYP inhibition assay, human liver microsomes. The data set is classed as in vitro ADME. The settings on record: human liver microsomes, substrate dextromethorphan; read-out: CYP IC50 2D6. How it is done: (§4) Inhibition of cytochromes P450 (CYPs) 2C9, 2D6 and 3A4 was assessed using human liver microsomes and CYP-selective substrate metabolism reactions. 50 μl incubations were made up containing (finally) 0.2 mg/ml pooled human liver microsomes, 5 μM substrate (diclofenac for CYP2C9 [4′hydroxylase], dextromethorphan for CYP2D6 [O-demethylase] or midazolam for CYP3A4 [1′hydroxylase]), 0.25 μL DMSO containing test inhibitor and NADPH regenerating system. Test inhibitor concentrations of 50, 16.7, 5.6, 1.9, 0.6 and 0.2 μM were assessed in singlicate. Incubations were prewarmed to 37° C. for 10 minutes before initiation by addition of NADPH regenerating system. Incubations were quenched after 5 minutes (20 minutes for dextromethorphan) by addition of 50 μl cold acetonitrile containing 20 ng/ml 4-OH-diclofenac-13C6, 20 ng/mL dextrorphan-D3 and 20 ng/mL 1-OH-midazolam-D4. Quenched incubates were stored at −20° C. for at least 1 hour before centrifugation (20,000× g, 20 minutes). Supernatants were removed and diluted 1:1 with water prior to analysis using a RapidFire sample injector system and API4000 mass spectrometer. Peak areas for substrate, metabolite and stable-labelled metabolite standard were determined using MS/MS. The peak area ratios between the metabolite generated by the enzymatic reaction and the internal standard were used in subsequent calculations. The percentage of (DMSO) control activity was calculated for each incubate and IC50 values estimated by non-linear regression. Sulfaphenazole, quinidine or ketoconazole were tested in each CYP2C9, CYP2D6 or CYP3A4 inhibition experiment, respectively, to ensure assay sensitivity and reproducibility. (Validated assays for human cytochrome P450 activities, R. L. Walsky and R. S. Obach, Drug Metabolism and Disposition 32: 647-660, 2004. and S. Fowler and H. Zhang, The AAPS Journal, Vol. 10, No. 2, 410-424, 2008)

Data set [4] has as its target T3, CYP2C9 (Homo sapiens, UniProt P11712).
T3 construct: 0.2 mg/ml pooled human liver microsomes; from tissue; host or cells: pooled human liver microsomes
The data set is described as follows: CYP inhibition assay, human liver microsomes. The data set is classed as in vitro ADME. The settings on record: human liver microsomes, substrate diclofenac; read-out: CYP IC50 2C9. How it is done: as §4

Data set [5] concerns the target T4, BACE1 (Homo sapiens, UniProt P56817).
T4 construct: endogenous in cells; host or cells: HEK293 APP cells
The data set is described as follows: Cellular Aβ-lowering assay (Abeta 40 AlphaLISA, HEK293 APP cells). The data set is classed as cell-based. Particulars: 18-20 hrs incubation, Aβ 40 in culture supernatant, read-out: BACE1 cell act. Aβ40 IC50. How it is done:
Cellular Aβ-Lowering Assay:
The Abeta 40 AlphaLISA Assay can be used. The HEK293 APP cells were seeded in 96 well Microtiter plates in cell culture medium (Iscove's, plus 10% (v/v) fetal bovine serum, penicillin/streptomycin) to about 80% confluency and the compounds were added at a 3× concentration in ⅓ volume of culture medium (final DMSO concentration was kept at 1% v/v). After 18-20 hrs incubation at 37° C. and 5% CO2 in a humidified incubator, the culture supernatants were harvested for the determination of Aβ 40 concentrations using Perkin-Elmer Human Amyloid beta 1-40 (high specificity) Kit (Cat#AL275C).
In a Perkin-Elmer White Optiplate-384 (Cat#6007290), 2 ul culture supernatants were combined with 2 μl of a 10× AlphaLISA Anti-hAβAcceptor beads + Biotinylated Antibody Anti-Aβ 1-40 Mix (50 μg/mL/5 nM). After 1 hour room temperature incubation, 16 μl of a 1.25× preparation of Streptavidin (SA) Donor beads (25 μg/mL) were added and incubated for 30 minutes in the Dark. Light Emission at 615 nm was then recorded using EnVision-Alpha Reader. Levels of Aβ 40 in the culture supernatants were calculated as percentage of maximum signal (cells treated with 1% DMSO without inhibitor). The IC50 values were calculated using the Excel XLfit software.

For data set [6], the target named is T5, recombinant human cathepsin E (Homo sapiens, UniProt P14091).
T5 construct: purchased R&D Systems
T5 sequence (P14091 54-396): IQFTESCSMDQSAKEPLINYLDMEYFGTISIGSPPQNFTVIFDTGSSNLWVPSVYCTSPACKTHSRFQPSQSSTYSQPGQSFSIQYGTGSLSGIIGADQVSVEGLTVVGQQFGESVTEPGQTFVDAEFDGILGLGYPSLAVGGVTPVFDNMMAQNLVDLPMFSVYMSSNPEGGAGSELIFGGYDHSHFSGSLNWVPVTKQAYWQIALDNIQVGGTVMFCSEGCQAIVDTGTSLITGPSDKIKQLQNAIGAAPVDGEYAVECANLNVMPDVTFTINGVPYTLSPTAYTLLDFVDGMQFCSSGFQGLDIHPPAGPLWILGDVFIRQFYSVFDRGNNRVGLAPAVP
The experiment in a line: Cathepsin E fluorescent substrate kinetic assay. The data set is classed as biochemical. The settings on record: pH 4.5, substrate MR121-CKLVFFAEDW
Source text: as §1, §2, §3

Data set [7] addresses T6, CYP3A4 (Homo sapiens, UniProt P08684).
T6 construct: 0.2 mg/ml pooled human liver microsomes; from tissue; host or cells: pooled human liver microsomes
The experiment in a line: CYP inhibition assay, human liver microsomes. The data set is classed as in vitro ADME. Particulars: human liver microsomes, substrate midazolam; read-out: CYP IC50 3A4. How it is done:
as §4

T1 sequence (P07339 65-162 limits assumed): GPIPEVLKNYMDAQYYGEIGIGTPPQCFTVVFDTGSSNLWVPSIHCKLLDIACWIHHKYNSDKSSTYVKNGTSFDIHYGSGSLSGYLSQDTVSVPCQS
T1 sequence (P07339 169-412 limits assumed): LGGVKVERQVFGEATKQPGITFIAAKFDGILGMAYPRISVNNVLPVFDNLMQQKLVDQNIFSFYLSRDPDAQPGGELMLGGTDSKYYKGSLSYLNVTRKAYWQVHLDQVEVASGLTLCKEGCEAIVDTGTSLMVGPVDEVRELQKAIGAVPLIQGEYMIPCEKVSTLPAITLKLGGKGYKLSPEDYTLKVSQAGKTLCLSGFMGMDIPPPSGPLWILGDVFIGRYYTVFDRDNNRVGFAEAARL
T3 sequence (P11712 whole entry): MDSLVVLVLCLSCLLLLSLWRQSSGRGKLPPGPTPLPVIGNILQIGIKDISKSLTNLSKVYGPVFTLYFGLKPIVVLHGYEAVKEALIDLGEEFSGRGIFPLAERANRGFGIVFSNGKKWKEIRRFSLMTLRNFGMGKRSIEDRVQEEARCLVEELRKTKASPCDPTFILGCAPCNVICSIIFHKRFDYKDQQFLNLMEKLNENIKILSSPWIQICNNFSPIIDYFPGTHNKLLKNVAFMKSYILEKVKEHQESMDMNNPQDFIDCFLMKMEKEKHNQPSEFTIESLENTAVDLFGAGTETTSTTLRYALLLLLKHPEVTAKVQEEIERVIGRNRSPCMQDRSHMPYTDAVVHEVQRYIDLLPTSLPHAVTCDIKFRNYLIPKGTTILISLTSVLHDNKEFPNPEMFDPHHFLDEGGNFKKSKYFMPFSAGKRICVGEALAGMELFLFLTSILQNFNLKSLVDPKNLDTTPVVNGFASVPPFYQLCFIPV
T2 sequence (P10635 whole entry): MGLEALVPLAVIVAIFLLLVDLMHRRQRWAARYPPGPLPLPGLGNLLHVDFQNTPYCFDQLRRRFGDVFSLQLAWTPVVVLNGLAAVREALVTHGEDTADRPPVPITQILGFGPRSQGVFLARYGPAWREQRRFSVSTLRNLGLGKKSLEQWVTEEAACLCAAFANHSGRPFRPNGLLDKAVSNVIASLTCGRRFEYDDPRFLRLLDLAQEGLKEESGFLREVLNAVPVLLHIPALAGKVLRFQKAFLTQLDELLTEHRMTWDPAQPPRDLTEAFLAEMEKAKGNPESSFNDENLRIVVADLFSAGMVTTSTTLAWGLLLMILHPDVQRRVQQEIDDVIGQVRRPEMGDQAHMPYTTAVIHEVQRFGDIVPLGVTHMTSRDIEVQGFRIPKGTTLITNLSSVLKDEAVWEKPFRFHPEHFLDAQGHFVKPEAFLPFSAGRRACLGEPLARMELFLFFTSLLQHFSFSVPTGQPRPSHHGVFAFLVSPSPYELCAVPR
T4 sequence (P56817 46-501): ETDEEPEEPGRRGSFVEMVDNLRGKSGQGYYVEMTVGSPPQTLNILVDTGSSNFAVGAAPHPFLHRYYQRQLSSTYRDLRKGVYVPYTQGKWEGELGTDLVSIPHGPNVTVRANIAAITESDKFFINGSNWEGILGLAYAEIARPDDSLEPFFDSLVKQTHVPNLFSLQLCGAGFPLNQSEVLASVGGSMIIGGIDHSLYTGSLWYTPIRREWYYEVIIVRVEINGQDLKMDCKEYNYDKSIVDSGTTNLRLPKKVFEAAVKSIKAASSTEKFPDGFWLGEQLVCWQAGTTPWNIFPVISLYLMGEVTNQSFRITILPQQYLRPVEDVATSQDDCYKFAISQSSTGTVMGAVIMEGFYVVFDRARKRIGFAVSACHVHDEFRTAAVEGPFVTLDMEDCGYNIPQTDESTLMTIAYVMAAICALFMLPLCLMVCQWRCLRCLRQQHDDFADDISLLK
T6 sequence (P08684 whole entry): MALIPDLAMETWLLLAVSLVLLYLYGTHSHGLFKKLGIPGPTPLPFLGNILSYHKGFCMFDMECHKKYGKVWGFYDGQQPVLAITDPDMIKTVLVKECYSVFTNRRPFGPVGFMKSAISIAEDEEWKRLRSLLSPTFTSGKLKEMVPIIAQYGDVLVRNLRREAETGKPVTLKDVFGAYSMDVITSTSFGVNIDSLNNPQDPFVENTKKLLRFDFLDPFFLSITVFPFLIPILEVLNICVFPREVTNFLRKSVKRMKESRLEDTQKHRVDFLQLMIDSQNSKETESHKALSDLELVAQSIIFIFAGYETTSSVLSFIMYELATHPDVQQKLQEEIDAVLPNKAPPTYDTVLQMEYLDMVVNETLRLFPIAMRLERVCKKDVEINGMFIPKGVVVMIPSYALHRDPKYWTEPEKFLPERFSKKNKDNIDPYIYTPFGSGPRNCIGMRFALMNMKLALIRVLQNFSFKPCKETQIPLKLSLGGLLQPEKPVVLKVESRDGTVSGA

`CN=[S@]1(=O)C[C@@](CF)(c2cc(-c3cc(-c4ncc(Cl)cn4)no3)ccc2F)N=C(N)C1(C)C` [Example 1, (1S,3S)-5-amino-3-(5-(3-(5-chloropyrimidin-2-yl)isoxazol-5-yl)-2-fluorophenyl)-3-(fluoromethyl)-6,6-dimethyl-1-(methylimino)-3,6-dihydro-2H-1,4-thiazine 1-oxide 2,2,2-trifluoroacetate]: the GSH human entry in data set [1] was “NF”. Moreover, the pIC50 in data set [2] is 4.12; in data set [3], < 5.00; in data set [4], < 5.00; in data set [5], 7.02; in data set [6], 3.86.
For `COc1cnc(-c2cc(-c3ccc(F)c([C@]4(C)C[S@@](=N)(=O)C(C)(C)C(N)=N4)c3)on2)cn1` [Example 41, (1R,3R)-5-amino-3-(2-fluoro-5-(3-(5-methoxypyrazin-2-yl)isoxazol-5-yl)phenyl)-1-imino-3,6,6-trimethyl-3,6-dihydro-2H-1,4-thiazine 1-oxide], the pIC50 in data set [2] is 4.35; in data set [3], < 5.00; in data set [4], < 5.00; in data set [7], < 5.00; in data set [5], 8.10; in data set [6], 4.25.
